# From patent publication US8759546B2, “Physical nano-complexes for preventing and treating cancer and method for manufacturing the same” (Gold Nanotech Inc., priority 2012, dated 2014)
# Tests used:
# [1] = tested on: bladder cancer cells (MBT-2); test: viability of MBT-2 cells at 48 hour post-treatment; assay type: cell-based
# Description: (§1) Firstly, to evaluate the tumor cytotoxicity of EGCG and/or nanogold, we examined viabilities of bladder cancer cells (MBT-2) and African green monkey kidney cells (Vero cell acts as a normal cell) at 48 hour post-EGCG or -nanogold treatment. Referring to FIG. 3, which is a schematic diagram of the cell viability of Vero cells and MBT-2 cells under different treating concentration of EGCG and nanogold. […] Refer to FIG. 4 for a schematic diagram of the concentrations of EGCG and nanogold mediated the 50% of cell growth inhibition of Vero cell and MBT-2 cell (IC50). […] In contrast, the Vero cell numbers were not changed in the presence of EGCG or nanogold.
# caspase-3 and -7 = test: Caspase-3/7 activity in MBT-2 cells; assay type: cell-based; details: 12 and 24 hours treatment
# Description: To assure that the EGCG and nanogold mediated apoptosis are triggered by the caspase effectors, we then examined expressions of the apoptosis-dependent enzymes caspase-3 and -7. Refer to FIG. 8 for a schematic diagram of Caspase-3/7 activity after EGCG and/or nanogold treatment for 12 and 24 hours.
# MBT-2 cells [2] = test: apoptosis detection by Annexin-V and PI staining, flow cytometry; assay type: cell-based; details: in 48 hours
# From the text: Cell apoptosis features some morphological alterations, such as chromatin condensation, membrane blebbing, inter-nucleosomal degradation of DNA, and apoptotic body formation. Previous study reported that EGCG can induce apoptosis via the PI3K/Akt pathway and Bcl-2 family proteins in T24 human bladder cancer cells. […] The cells in test were subjected to flow cytometry analysis, whereby apoptotic bodies can be detected by Annexin-V and PI staining Refer to FIG. […]
# [3] = superoxide radical scavenging effect; assay type: biochemical; details: compared to vitamin E alone
# From the text: Refer to FIG. 2 for a schematic diagram of the anti-oxidant effect of the EGCG-nanogold complexes.
# [4] = tested on: African green monkey kidney cells (Vero cell); test: viability of Vero cells at 48 hour post-treatment; assay type: cell-based; details: in the presence of EGCG or nanogold
# Description: as §1
# MBT-2 cells [5] = test: cell cycle of MBT-2 cells; assay type: cell-based
# Description: Following, the mechanism of the EGCG and nanogold mediated cell apoptosis was investigated. Refer to FIG. 7 for a table of the cell cycle of MBT-2 cell treated by various concentrations of EGCG and nanogold. […] The MBT-2 cells otherwise underwent G0/G1 arrest when the doses of EGCG (50 μM) and nanogold (2 ppm) were increased.
substance,measurement,setting,value
epigallocatechin-3-gallate [EGCG],"MBT-2 cell numbers, % of the control","[1]; EGCG and nanogold 2 ppm, combined or alone",49.7%
same,viability of MBT-2 cells,[1]; different treating concentrations,reduce the viability of MBT-2 cells in a concentration-dependent manner
same,"caspase-3 and -7, fold increase versus the vehicle-alone controls",caspase-3 and -7,2.42±0.43 fold
same,percentage of Annexin-V-positive cells,MBT-2 cells [2],16.6%
same,superoxide radical scavenging activity,[3],significant superoxide radical scavenging activity
same,Vero cell numbers,[4],not changed
same,cell cycle arrest,"MBT-2 cells [5]; increased doses: EGCG 50 μM, nanogold 2 ppm",G0/G1 arrest
same,cell cycle arrest,MBT-2 cells [5]; lower doses,arrested in the S phase
